Results reported in patent US6906205B2, “Spiro and dispiro 1,2,4-trioxolane antimalarials” (Medicines for Malaria Venture MMV, priority 2002, dated 2005).
≈ marks a conversion by molar mass, not a printed value.

System: Schistosoma mansoni adult schistosomes (49-day-old)
Test: effect on adult schistosomes (49-day-old) in mice
Format: in vivo
Conditions: single 400 mg/kg per os
Protocol: Mice were infected with 100 Schistosoma mansoni cercariae […]. Each group was treated per os with OZ compounds at single doses of 200, 400, and 600 mg/kg. […] All groups were killed 4 weeks after treatment and the liver and intestine were removed and separated. The liver and intestine were compressed and alive male and female worms could be seen and counted.

Compound | % reduction of adult worms growth at day 49 after per os application of 400 mg/kg, TWR (%) | adult worms at day 49, per os 400 mg/kg, DEAD WORM (%)
O=C1C2C3CC4C5C3C1C5C1(OOC3(O1)C1CC5CC(C1)CC3C5)C42 (centres unmarked) [OZ14] | 0/0% | 0/0%
CC(C)(C)C1CCC2(CC1)OOC1(O2)C2CC3CC(C2)CC1C3 (centres unmarked) [OZ18] | 0/0% | 0/0%
O=C(O)C(=O)NC[C@H]1CC[C@]2(CC1)OO[C@]1(O2)C2CC3CC(C2)CC1C3 [OZ360] | 0/0% | 0/0%
CON=C1CCC2(CC1)OOC1(O2)C2CC3CC(C2)CC1C3 (centres unmarked) [OZ15] | 0% | 10%
O=C(c1ccccc1)N1CCC2(CC1)OOC1(O2)C2CC3CC(C2)CC1C3 (centres unmarked) [OZ24] | 21% | 0%
O=C1CN(C(=O)C[C@H]2CC[C@]3(CC2)OO[C@]2(O3)C3CC4CC(C3)CC2C4)CCN1 [OZ296] | 1% | 13%
CCOC(=O)N1CCC2(CC1)OOC1(O2)C2CC3CC(C2)CC1C3 (centres unmarked) [OZ23] | 0% | 4%

System: Schistosoma mansoni 21-day-old schistosomules
Test: effect on 21-day-old schistosomules in mice
Format: in vivo
Conditions: single 200 mg/kg per os, female mice
Protocol: All groups were killed 4 weeks after treatment and the liver and intestine were removed and separated. The liver and intestine were compressed and alive male and female worms could be seen and counted. The effect of the compounds was evaluated by mean total and female worm burden.

Compound | % reduction of schistosomule growth at day 21 after per os application of 200 mg/kg, FWR (%) | % reduction of schistosomule growth at day 21 after per os application of 200 mg/kg, TWR (%)
O=C1C2C3CC4C5C3C1C5C1(OOC3(O1)C1CC5CC(C1)CC3C5)C42 (centres unmarked) [OZ14] | 0 | 7
CC(C)(C)C1CCC2(CC1)OOC1(O2)C2CC3CC(C2)CC1C3 (centres unmarked) [OZ18] | 9 | 12
O=C(O)C(=O)NC[C@H]1CC[C@]2(CC1)OO[C@]1(O2)C2CC3CC(C2)CC1C3 [OZ360] | 13 | 17
CON=C1CCC2(CC1)OOC1(O2)C2CC3CC(C2)CC1C3 (centres unmarked) [OZ15] | 70 | 63
O=C(c1ccccc1)N1CCC2(CC1)OOC1(O2)C2CC3CC(C2)CC1C3 (centres unmarked) [OZ24] | 61 | 65
O=C1CN(C(=O)C[C@H]2CC[C@]3(CC2)OO[C@]2(O3)C3CC4CC(C3)CC2C4)CCN1 [OZ296] | 85 | 85
CCOC(=O)N1CCC2(CC1)OOC1(O2)C2CC3CC(C2)CC1C3 (centres unmarked) [OZ23] | 84 | 90

System: P. falciparum NF54 strain (sensitive to standard antimalarials)
Test: semiautomated microdilution assay, [3H]-hypoxanthine incorporation, NF54 strain
Format: cell-based, Plasmodium falciparum
Conditions: NF54 strain, 72 h incubation
How it was run: (§1)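 Logit regression analysis was used to estimate IC50 values. Parasites were intraerythrocytic forms from asynchronous stock cultures, and compounds were tested by semiautomated microdilution.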

Compound | IC50 (ng/ml) NF54 [ng/mL]
O=C1C2C3CC4C5C3C1C5C1(OOC3(O1)C1CC5CC(C1)CC3C5)C42 (centres unmarked) [OZ14] | > 100
CC(C)(C)C1CCC2(CC1)OOC1(O2)C2CC3CC(C2)CC1C3 (centres unmarked) [OZ18] | 84 (≈ 262 nM)
O=C(O)C(=O)NC[C@H]1CC[C@]2(CC1)OO[C@]1(O2)C2CC3CC(C2)CC1C3 [OZ360] | 59 (≈ 161 nM)
CON=C1CCC2(CC1)OOC1(O2)C2CC3CC(C2)CC1C3 (centres unmarked) [OZ15] | 1.0 (≈ 3.25 nM)
O=C(c1ccccc1)N1CCC2(CC1)OOC1(O2)C2CC3CC(C2)CC1C3 (centres unmarked) [OZ24] | 0.58 (≈ 1.57 nM)
O=C1CN(C(=O)C[C@H]2CC[C@]3(CC2)OO[C@]2(O3)C3CC4CC(C3)CC2C4)CCN1 [OZ296] | 0.89 (≈ 2.2 nM)
CCOC(=O)N1CCC2(CC1)OOC1(O2)C2CC3CC(C2)CC1C3 (centres unmarked) [OZ23] | 0.57 (≈ 1.69 nM)

System: ANKA strain of P. berghei
Test: single dose STI in vivo screen in infected mice
Set-up: species or system Plasmodium berghei
Conditions: percent reduction in parasitemia day 3 post-infection; single 3 mg/kg po in SSV
How it was run: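 Groups of 3-5 Moro SPF or NMRI mice infected with the ANKA strain of P. berghei received a single dose of trioxolane on day one post-infection. The compound was given in 3% ethanol and 7% Tween 80 or in SSV (0.5% w/v CMC, 0.5% v/v benzyl alcohol, 0.4% v/v Tween 80, 0.9% w/v sodium chloride in water). Antimalarial activity was scored as percent reduction in parasitemia on day three and as survival time versus untreated controls. Survival to day 30 counted as cure.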

Compound | Activity (%) 3 mg/kg SSV po [%]
O=C(O)C(=O)NC[C@H]1CC[C@]2(CC1)OO[C@]1(O2)C2CC3CC(C2)CC1C3 [OZ360] | 0
O=C1CN(C(=O)C[C@H]2CC[C@]3(CC2)OO[C@]2(O3)C3CC4CC(C3)CC2C4)CCN1 [OZ296] | 90

Same assay, conditions: percent reduction in parasitemia day 3 post-infection; single 10 mg/kg po in 3% ethanol and 7% Tween 80; mice

Compound | Activity (%) po
O=C1C2C3CC4C5C3C1C5C1(OOC3(O1)C1CC5CC(C1)CC3C5)C42 (centres unmarked) [OZ14] | 23%
CC(C)(C)C1CCC2(CC1)OOC1(O2)C2CC3CC(C2)CC1C3 (centres unmarked) [OZ18] | 0/NA/0%
CON=C1CCC2(CC1)OOC1(O2)C2CC3CC(C2)CC1C3 (centres unmarked) [OZ15] | 99.8%
O=C(c1ccccc1)N1CCC2(CC1)OOC1(O2)C2CC3CC(C2)CC1C3 (centres unmarked) [OZ24] | 93%
CCOC(=O)N1CCC2(CC1)OOC1(O2)C2CC3CC(C2)CC1C3 (centres unmarked) [OZ23] | 99.5%

Same assay, conditions: percent reduction in parasitemia day 3 post-infection; single 10 mg/kg po in SSV

Compound | Activity (%) 10 mg/kg SSV po [%]
O=C(O)C(=O)NC[C@H]1CC[C@]2(CC1)OO[C@]1(O2)C2CC3CC(C2)CC1C3 [OZ360] | 38

Same assay, conditions: percent reduction in parasitemia day 3 post-infection; single 10 mg/kg sc in 3% ethanol and 7% Tween 80; mice

Compound | Activity (%) sc
O=C1C2C3CC4C5C3C1C5C1(OOC3(O1)C1CC5CC(C1)CC3C5)C42 (centres unmarked) [OZ14] | 96%
CC(C)(C)C1CCC2(CC1)OOC1(O2)C2CC3CC(C2)CC1C3 (centres unmarked) [OZ18] | 0/NA/0%
CON=C1CCC2(CC1)OOC1(O2)C2CC3CC(C2)CC1C3 (centres unmarked) [OZ15] | 99.9%
O=C(c1ccccc1)N1CCC2(CC1)OOC1(O2)C2CC3CC(C2)CC1C3 (centres unmarked) [OZ24] | 99.9%
CCOC(=O)N1CCC2(CC1)OOC1(O2)C2CC3CC(C2)CC1C3 (centres unmarked) [OZ23] | 99.9%

Same assay, conditions: percent reduction in parasitemia day 3 post-infection; single po dose in standard suspending vehicle (SSV); mice

Compound | Activity (%) SSVpo [%]
CON=C1CCC2(CC1)OOC1(O2)C2CC3CC(C2)CC1C3 (centres unmarked) [OZ15] | 88
O=C(c1ccccc1)N1CCC2(CC1)OOC1(O2)C2CC3CC(C2)CC1C3 (centres unmarked) [OZ24] | 66
CCOC(=O)N1CCC2(CC1)OOC1(O2)C2CC3CC(C2)CC1C3 (centres unmarked) [OZ23] | 99.34

Same assay, conditions: single 3 mg/kg po in SSV

Compound | Survival (days) 3 mg/kg SSV po [days]
O=C(O)C(=O)NC[C@H]1CC[C@]2(CC1)OO[C@]1(O2)C2CC3CC(C2)CC1C3 [OZ360] | 6.2

Same assay, conditions: single 10 mg/kg po in 3% ethanol and 7% Tween 80; untreated control 5.6 ± 0.3

Compound | Survival (days) po [days]
O=C1C2C3CC4C5C3C1C5C1(OOC3(O1)C1CC5CC(C1)CC3C5)C42 (centres unmarked) [OZ14] | 6.0
CC(C)(C)C1CCC2(CC1)OOC1(O2)C2CC3CC(C2)CC1C3 (centres unmarked) [OZ18] | 5.0
CON=C1CCC2(CC1)OOC1(O2)C2CC3CC(C2)CC1C3 (centres unmarked) [OZ15] | 7.4
O=C(c1ccccc1)N1CCC2(CC1)OOC1(O2)C2CC3CC(C2)CC1C3 (centres unmarked) [OZ24] | 7.0
CCOC(=O)N1CCC2(CC1)OOC1(O2)C2CC3CC(C2)CC1C3 (centres unmarked) [OZ23] | 7.7

Same assay, conditions: single 10 mg/kg po in SSV

Compound | Survival (days) 10 mg/kg SSV po [days]
O=C(O)C(=O)NC[C@H]1CC[C@]2(CC1)OO[C@]1(O2)C2CC3CC(C2)CC1C3 [OZ360] | 6.8
O=C1CN(C(=O)C[C@H]2CC[C@]3(CC2)OO[C@]2(O3)C3CC4CC(C3)CC2C4)CCN1 [OZ296] | 10.0

Same assay, conditions: single 10 mg/kg sc in 3% ethanol and 7% Tween 80; untreated control 5.6 ± 0.3

Compound | Survival (days) sc [days]
O=C1C2C3CC4C5C3C1C5C1(OOC3(O1)C1CC5CC(C1)CC3C5)C42 (centres unmarked) [OZ14] | 7.7
CC(C)(C)C1CCC2(CC1)OOC1(O2)C2CC3CC(C2)CC1C3 (centres unmarked) [OZ18] | 5.3
CON=C1CCC2(CC1)OOC1(O2)C2CC3CC(C2)CC1C3 (centres unmarked) [OZ15] | 8.2
O=C(c1ccccc1)N1CCC2(CC1)OOC1(O2)C2CC3CC(C2)CC1C3 (centres unmarked) [OZ24] | 8.7
CCOC(=O)N1CCC2(CC1)OOC1(O2)C2CC3CC(C2)CC1C3 (centres unmarked) [OZ23] | 8.9

Same assay, conditions: single po dose in SSV; untreated control 5.6 ± 0.3

Compound | Survival (days) SSVpo [days]
CON=C1CCC2(CC1)OOC1(O2)C2CC3CC(C2)CC1C3 (centres unmarked) [OZ15] | 6.8
O=C(c1ccccc1)N1CCC2(CC1)OOC1(O2)C2CC3CC(C2)CC1C3 (centres unmarked) [OZ24] | 6.8
CCOC(=O)N1CCC2(CC1)OOC1(O2)C2CC3CC(C2)CC1C3 (centres unmarked) [OZ23] | 7.0

System: P. falciparum K1 strain (Thailand resistant to chloroquine)
Test: semiautomated microdilution assay, [3H]-hypoxanthine incorporation, K1 strain
Format: cell-based, Plasmodium falciparum
Conditions: K1 strain, 72 h incubation
How it was run: as §1

Compound | IC50 (ng/ml) K1 [ng/mL]
O=C1C2C3CC4C5C3C1C5C1(OOC3(O1)C1CC5CC(C1)CC3C5)C42 (centres unmarked) [OZ14] | 91 (≈ 267 nM)
CC(C)(C)C1CCC2(CC1)OOC1(O2)C2CC3CC(C2)CC1C3 (centres unmarked) [OZ18] | 63 (≈ 197 nM)
O=C(O)C(=O)NC[C@H]1CC[C@]2(CC1)OO[C@]1(O2)C2CC3CC(C2)CC1C3 [OZ360] | 58 (≈ 159 nM)
CON=C1CCC2(CC1)OOC1(O2)C2CC3CC(C2)CC1C3 (centres unmarked) [OZ15] | 0.60 (≈ 1.95 nM)
O=C(c1ccccc1)N1CCC2(CC1)OOC1(O2)C2CC3CC(C2)CC1C3 (centres unmarked) [OZ24] | 0.35 (≈ 0.947 nM)
O=C1CN(C(=O)C[C@H]2CC[C@]3(CC2)OO[C@]2(O3)C3CC4CC(C3)CC2C4)CCN1 [OZ296] | 0.60 (≈ 1.48 nM)
CCOC(=O)N1CCC2(CC1)OOC1(O2)C2CC3CC(C2)CC1C3 (centres unmarked) [OZ23] | 0.29 (≈ 0.859 nM)
